# Tested on: 192522-019-R-J2-PDC complex tumor spheroid viability
# Assay: Anticancer human tumor 192522-019-R-J2-PDC patient-derived colon adenocarcinoma cell line growth inhibition [POLQ]
# Details: for IC50: curve of first compound; for viability, T/C: stronger effect = lower value
# How it was run: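 Complex spheroid viability model combining PDC tumour cells with endothelial (HUVEC) and MSC stromal cells. Novobiocin, ART-558 or RP6685 were tested singly and in combination with standard and investigational anticancer drugs. Each was titrated in half-log steps from near clinical Cmax, or from 10 microM where Cmax was unknown.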
# [1] = second compound 0.0316 µM, first compound 0.0316 µM
# [2] = second compound 0.0316 µM, first compound 0.1 µM
# [3] = second compound 0.1 µM, first compound 0.0316 µM
# [4] = second compound 0.1 µM, first compound 0.1 µM
# [5] = second compound 0.316 µM, first compound 0.0316 µM
# [6] = second compound 0.316 µM, first compound 0.1 µM
# [7] = second compound 1 µM, first compound 0.0316 µM
# [8] = second compound 1 µM, first compound 0.1 µM
# [9] = second compound 3.16 µM, first compound 0.0316 µM
# [10] = second compound 3.16 µM, first compound 0.1 µM
# [11] = second compound 10 µM, first compound 0.0316 µM
# [12] = second compound 10 µM, first compound 0.1 µM
# 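Note: spheroids exposed to drugs for seven days before reading.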
# 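Throughout, for viability, T/C: 100% = DMSO vehicle control viability in luminescence.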
smiles,measurement,setting,value
CC[C@@]1(O)C(=O)OCc2c1cc1n(c2=O)Cc2cc3c(CN(C)C)c(O)ccc3nc2-1 + Nc1ccc(C#CCN(C(=O)Cc2ncc(C(F)(F)F)cc2C(F)(F)F)c2ccc(F)cc2)nn1,IC50,second compound 0.0316 µM,> 0.1 µM
same,IC50,second compound 0.1 µM,> 0.1 µM
same,IC50,second compound 0.316 µM,> 0.1 µM
same,IC50,second compound 1 µM,> 0.1 µM
same,IC50,second compound 3.16 µM,> 0.1 µM
same,IC50,second compound 10 µM,> 0.1 µM
same,"viability, T/C","second compound 0.0316 µM, first compound 0.000316 µM",96.2%
same,"viability, T/C","second compound 0.0316 µM, first compound 0.001 µM",103%
same,"viability, T/C","second compound 0.0316 µM, first compound 0.00316 µM",97.1%
same,"viability, T/C","second compound 0.0316 µM, first compound 0.01 µM",108%
same,"viability, T/C",[1],98.5%
same,"viability, T/C",[2],77.3%
same,"viability, T/C","second compound 0.1 µM, first compound 0.000316 µM",111%
same,"viability, T/C","second compound 0.1 µM, first compound 0.001 µM",105%
same,"viability, T/C","second compound 0.1 µM, first compound 0.00316 µM",103%
same,"viability, T/C","second compound 0.1 µM, first compound 0.01 µM",99%
same,"viability, T/C",[3],107%
same,"viability, T/C",[4],79.1%
same,"viability, T/C","second compound 0.316 µM, first compound 0.000316 µM",107%
same,"viability, T/C","second compound 0.316 µM, first compound 0.001 µM",109%
same,"viability, T/C","second compound 0.316 µM, first compound 0.00316 µM",97.8%
same,"viability, T/C","second compound 0.316 µM, first compound 0.01 µM",103%
same,"viability, T/C",[5],95.7%
same,"viability, T/C",[6],77.7%
same,"viability, T/C","second compound 1 µM, first compound 0.000316 µM",113%
same,"viability, T/C","second compound 1 µM, first compound 0.001 µM",104%
same,"viability, T/C","second compound 1 µM, first compound 0.00316 µM",106%
same,"viability, T/C","second compound 1 µM, first compound 0.01 µM",109%
same,"viability, T/C",[7],97.8%
same,"viability, T/C",[8],78.2%
same,"viability, T/C","second compound 3.16 µM, first compound 0.000316 µM",99.6%
same,"viability, T/C","second compound 3.16 µM, first compound 0.001 µM",99.9%
same,"viability, T/C","second compound 3.16 µM, first compound 0.00316 µM",103%
same,"viability, T/C","second compound 3.16 µM, first compound 0.01 µM",99.3%
same,"viability, T/C",[9],97.5%
same,"viability, T/C",[10],84.8%
same,"viability, T/C","second compound 10 µM, first compound 0.000316 µM",106%
same,"viability, T/C","second compound 10 µM, first compound 0.001 µM",94.7%
same,"viability, T/C","second compound 10 µM, first compound 0.00316 µM",101%
same,"viability, T/C","second compound 10 µM, first compound 0.01 µM",95.1%
same,"viability, T/C",[11],92.3%
same,"viability, T/C",[12],87%
COc1cc(C2c3cc4c(cc3C(OC3OC5COC(C)OC5C(O)C3O)C3COC(=O)C23)OCO4)cc(OC)c1O (centres undefined) + Nc1ccc(C#CCN(C(=O)Cc2ncc(C(F)(F)F)cc2C(F)(F)F)c2ccc(F)cc2)nn1,IC50,second compound 0.0316 µM,> 10 µM
same,IC50,second compound 0.1 µM,> 10 µM
same,IC50,second compound 0.316 µM,> 10 µM
same,IC50,second compound 1 µM,> 10 µM
same,IC50,second compound 3.16 µM,> 10 µM
same,IC50,second compound 10 µM,> 10 µM
same,"viability, T/C",[1],105%
same,"viability, T/C",[2],98.2%
same,"viability, T/C","second compound 0.0316 µM, first compound 0.316 µM",86.9%
same,"viability, T/C","second compound 0.0316 µM, first compound 1 µM",83.2%
same,"viability, T/C","second compound 0.0316 µM, first compound 3.16 µM",68.9%
same,"viability, T/C","second compound 0.0316 µM, first compound 10 µM",77.8%
same,"viability, T/C",[3],110%
same,"viability, T/C",[4],92.2%
same,"viability, T/C","second compound 0.1 µM, first compound 0.316 µM",97.5%
same,"viability, T/C","second compound 0.1 µM, first compound 1 µM",93.4%
same,"viability, T/C","second compound 0.1 µM, first compound 3.16 µM",65.4%
same,"viability, T/C","second compound 0.1 µM, first compound 10 µM",80.4%
same,"viability, T/C",[5],106%
same,"viability, T/C",[6],100%
same,"viability, T/C","second compound 0.316 µM, first compound 0.316 µM",96.4%
same,"viability, T/C","second compound 0.316 µM, first compound 1 µM",87%
same,"viability, T/C","second compound 0.316 µM, first compound 3.16 µM",67%
same,"viability, T/C","second compound 0.316 µM, first compound 10 µM",80%
same,"viability, T/C",[7],100%
same,"viability, T/C",[8],91.9%
same,"viability, T/C","second compound 1 µM, first compound 0.316 µM",98.2%
same,"viability, T/C","second compound 1 µM, first compound 1 µM",85.1%
same,"viability, T/C","second compound 1 µM, first compound 3.16 µM",73.9%
same,"viability, T/C","second compound 1 µM, first compound 10 µM",75%
same,"viability, T/C",[9],109%
same,"viability, T/C",[10],96.4%
same,"viability, T/C","second compound 3.16 µM, first compound 0.316 µM",95.9%
same,"viability, T/C","second compound 3.16 µM, first compound 1 µM",85.2%
same,"viability, T/C","second compound 3.16 µM, first compound 3.16 µM",72.7%
same,"viability, T/C","second compound 3.16 µM, first compound 10 µM",76.1%
same,"viability, T/C",[11],104%
same,"viability, T/C",[12],101%
same,"viability, T/C","second compound 10 µM, first compound 0.316 µM",96.9%
same,"viability, T/C","second compound 10 µM, first compound 1 µM",78.6%
same,"viability, T/C","second compound 10 µM, first compound 3.16 µM",79.7%
same,"viability, T/C","second compound 10 µM, first compound 10 µM",72.2%

# — PubChem BioAssay AID1963850 (Molecular Pharmacology Branch, DTP, NCI, 2024)
